{
  "source": "DBAASP",
  "test_in_all_cases": "≥ marks a high value that may be exact or a test limit, other limits are often not marked, values filed in µg/mL are converted to µM",
  "key": {"[1]": {"system": "Candida albicans"}, "[2]": {"system": "Staphylococcus aureus ATCC 49476"}, "[3]": {"system": "Staphylococcus aureus MR"}, "[4]": {"system": "Pseudomonas aeruginosa ATCC 27853"}, "[5]": {"system": "Escherichia coli"}, "[6]": {"system": "Bifidobacterium longum subsp. infantis"}, "[7]": {"system": "Staphylococcus aureus"}, "[8]": {"system": "Candida parapsilosis"}, "[9]": {"system": "Escherichia coli DH5alpha"}, "[10]": {"system": "Bacillus subtilis DELTA"}, "[11]": {"system": "Pseudomonas aeruginosa PAO1"}, "[12]": {"system": "Zymomonas mobilis ATCC 10988"}, "[13]": {"system": "Bacillus subtilis ATCC 6051"}, "[14]": {"system": "Escherichia coli NEB5alpha"}, "[15]": {"system": "Acinetobacter baumannii ATCC 7978"}, "[16]": {"system": "Staphylococcus aureus MW2"}, "[17]": {"system": "Staphylococcus aureus ATCC 29231"}, "[18]": {"system": "Candida albicans ATCC 10231"}, "[19]": {"system": "Klebsiella pneumoniae WGLW2"}, "[20]": {"system": "Cryptococcus neoformans ATCC 32264"}},
  "data": [
    {"smiles": "CC[C@H](C)[C@H](NC(=O)[C@H](CO)NC(=O)[C@H](Cc1ccccc1)NC(=O)[C@H](CC(C)C)NC(=O)CNC(=O)CNC(=O)[C@@H](NC(=O)[C@@H](NC(=O)[C@H](Cc1cnc[nH]1)NC(=O)[C@H](Cc1cnc[nH]1)NC(=O)[C@@H](NC(=O)[C@@H](N)Cc1ccccc1)[C@@H](C)CC)[C@@H](C)CC)[C@@H](C)CC)C(=O)NCC(=O)N[C@@H](CCCCN)C(=O)N[C@H](C(=O)N[C@H](C(=O)N[C@@H](Cc1cnc[nH]1)C(=O)N[C@@H](CCCN=C(N)N)C(=O)N[C@@H](CC(C)C)C(=O)N[C@H](C(=O)N[C@@H](CCCN=C(N)N)C(=O)N[C@@H](CCCN=C(N)N)C(=O)N[C@@H](CCCN=C(N)N)C(=O)N[C@@H](CCCN=C(N)N)C(=O)N[C@@H](CCCN=C(N)N)C(=O)O)[C@@H](C)CC)[C@@H](C)CC)[C@@H](C)CC", "note": "[FIHHIIGGLFSIGKIIHRLIRRRRR]", "values": [
      {"measurement": "MIC", "setting": "[1]", "result": 41.8, "unit": "µM"},
      {"measurement": "MIC", "setting": "[2]", "result": 5.22, "unit": "µM"},
      {"measurement": "MIC", "setting": "[3]", "result": 20.9, "unit": "µM"},
      {"measurement": "MIC", "setting": "[4]", "result": 167, "unit": "µM"}
    ]},
    {"smiles": "CC(C)C[C@H](NC(=O)[C@H](CC(=O)O)NC(=O)[C@H](CCCCN)NC(=O)[C@@H](N)Cc1ccccc1)C(=O)NCC(=O)N[C@@H](CCC(=O)O)C(=O)N[C@@H](CCC(=O)O)C(=O)N[C@@H](CC(N)=O)C(=O)N[C@@H](Cc1ccccc1)C(=O)N[C@@H](CCCCN)C(=O)O", "note": "[FKDLGEENFK]", "values": [
      {"measurement": "MIC", "setting": "[5]", "result": 2450, "unit": "µM"},
      {"measurement": "MIC", "setting": "[6]", "result": "≥ 2450", "unit": "µM"},
      {"measurement": "MIC", "setting": "[7]", "result": 2450, "unit": "µM"}
    ]},
    {"smiles": "CC[C@H](C)[C@H](NC(=O)[C@H](CCCN=C(N)N)NC(=O)[C@H](CCC(N)=O)NC(=O)[C@@H](NC(=O)[C@@H](NC(=O)[C@H](CCCN=C(N)N)NC(=O)[C@H](CCCCN)NC(=O)[C@H](Cc1ccccc1)NC(C)=O)[C@@H](C)CC)C(C)C)C(=O)N[C@@H](CCCCN)C(=O)N[C@@H](CC(=O)O)C(=O)N[C@@H](CC(C)C)C(=O)N[C@@H](CC(C)C)C(=O)N[C@@H](CCCN=C(N)N)C(N)=O", "note": "[FKRIVQRIKDLLR]", "values": [
      {"measurement": "MIC", "setting": "[8]", "result": "≥ 119", "unit": "µM"},
      {"measurement": "MIC", "setting": "[9]", "result": "≥ 119", "unit": "µM"},
      {"measurement": "MIC", "setting": "[10]", "result": "≥ 119", "unit": "µM"},
      {"measurement": "MIC", "setting": "[11]", "result": 23.7, "unit": "µM"},
      {"measurement": "MIC", "setting": "[12]", "result": 23.7, "unit": "µM"}
    ]},
    {"smiles": "CC[C@H](C)[C@H](NC(=O)[C@H](C)NC(=O)CNC(=O)[C@H](CCCCN)NC(=O)[C@H](CCC(=O)O)NC(=O)[C@H](CCC(=O)O)NC(=O)[C@H](CC(=O)O)NC(=O)[C@H](CCC(=O)O)NC(=O)[C@H](CC(N)=O)NC(=O)[C@H](CCCN=C(N)N)NC(=O)CN)C(=O)N[C@H](C(=O)N[C@@H](CCCCN)C(=O)N[C@H](C(=O)N[C@@H](CCCCN)C(=O)NCC(=O)NCC(=O)N[C@@H](CC(C)C)C(=O)O)C(C)C)C(C)C", "note": "[GRNEDEEKGAIVKVKGGL]", "values": [
      {"measurement": "MIC", "setting": "[13]", "result": "≥ 1000", "unit": "µM"},
      {"measurement": "MIC", "setting": "[14]", "result": "≥ 1000", "unit": "µM"}
    ]},
    {"smiles": "CC[C@H](C)[C@H](NC(=O)[C@H](Cc1c[nH]c2ccccc12)NC(=O)[C@H](CCCCN)NC(=O)[C@@H](N)CC(C)C)C(=O)NCC(=O)N[C@@H](CCCCN)C(=O)N[C@@H](CCCCN)C(=O)N[C@H](C(=O)N[C@@H](Cc1c[nH]c2ccccc12)C(=O)N[C@@H](CCCN=C(N)N)C(=O)N[C@H](C(=O)NCC(=O)N[C@@H](Cc1c[nH]c2ccccc12)C(=O)N[C@@H](CC(N)=O)C(=O)N[C@@H](Cc1c[nH]c2ccccc12)C(=O)N[C@@H](CCCN=C(N)N)C(=O)O)C(C)C)[C@@H](C)CC", "note": "[LKWIGKKIWRVGWNWR]", "values": [
      {"measurement": "MIC", "setting": "[15]", "result": 15.1, "unit": "µM"},
      {"measurement": "MIC", "setting": "[16]", "result": 30.1, "unit": "µM"},
      {"measurement": "MIC", "setting": "[17]", "result": "≥ 60.2", "unit": "µM"},
      {"measurement": "MIC", "setting": "[18]", "result": 60.2, "unit": "µM"},
      {"measurement": "MIC", "setting": "[19]", "result": "≥ 60.2", "unit": "µM"}
    ]},
    {"smiles": "NCCCC[C@H](NC(=O)[C@H](CCCCN)NC(=O)[C@H](Cc1c[nH]c2ccccc12)NC(=O)[C@H](CCCCN)NC(=O)[C@H](CCCN=C(N)N)NC(=O)[C@H](CCCN=C(N)N)NC(=O)[C@H](CCCCN)NC(=O)[C@@H](N)CCCN=C(N)N)C(N)=O", "note": "[RKRRKWKK]", "values": [
      {"measurement": "MIC", "setting": "[20]", "result": "≥ 200", "unit": "µM"}
    ]}
  ]
}
